US20090170762A1, “Treatment of Diabetes Related Obesity” (UUTech Limited, priority 2005, published 2009)
Entries after “also recorded” stand apart in the source; their conditions may differ. Ends that are not written are not given here.

Experiments:
ob/ob mice = assay: Daily (Pro3)GIP for 60 days in young ob/ob mice; assay type: in vivo, mouse
Description: (§1) Young obese diabetic (ob/ob) mice derived from the colony maintained at Aston University, UK (Bailey, C. J. et al., 1982, Int. J. Obes. 6:11-21) were used at 5-7 weeks of age. Normal lean control mice from the same colony were used in comparative experiments (See Example 6, below). Animals were age-matched, divided into groups and housed individually in an air-conditioned room at 22±2° C. with a 12 hours light:12 hours dark cycle (08:00-20:00 hours). Drinking water and a standard rodent maintenance diet (Trouw Nutrition, Cheshire, UK) were freely available. In a separate experiment, Swiss Tylers Original (TO) mice purchased from Harlan Ltd. (Bicester, UK) were used at 5-7 weeks of age. Animals were housed as for ob/ob mice and given drinking water ad libitum. Normal TO mice were allowed free access to fed high fat diet (45% fat, 20% protein, 35% carbohydrate, 26.15 MJ/kg), high carbohydrate diet (10% fat, 20% protein, 70% carbohydrate, 18.80 MJ/kg) (Special Diets Service, Witham, Essex, UK), cafeteria diet (corresponding to approximately 33% fat, 19% protein, 48% carbohydrate, 16.39 MJ/kg) or normal rodent maintenance diet (10% fat, 30% protein, 60% carbohydrate; 14.2 MJ/kg, Trouw Nutrition, Cheshire, UK). The cafeteria diet comprised 6 daily rotations of 2 palatable food items per day (2 from: tuna, peanut butter, crisps, chocolate biscuits, madera cake, chocolate, luncheon meat, sausages, corned beef, cheese, marzipan). All animal experiments were carried out in accordance with the UK Animals (Scientific Procedures) Act 1986.
(§2) Food intake and body weight were recorded daily while plasma glucose and insulin concentrations were monitored at intervals of 3-6 days. Whole blood for the measurement of glycated hemoglobin was taken on day 60. In addition, plasma samples for measurement of cholesterol, circulating triglycerides, HDL-cholesterol (HDL-C) and LDL-cholesterol (LDL-C) were taken on day 60. […] Mice fasted for 18 hours were used to examine the metabolic response to 15 minutes feeding on day 60. In a separate series, pancreatic tissues were excised at the end of the 60-day treatment period and processed for immunohistochemistry or measurement of insulin following extraction with 5 ml/g of ice-cold acid ethanol (750 ml ethanol, 235 ml water, 15 ml concentrated HCl). Blood samples taken from the cut tip of the tail vein of conscious mice at the times indicated in the Figures were immediately centrifuged using a Beckman microcentrifuge (Beckman instruments, UK) for 30 seconds at 13,000×g. The resulting plasma was then aliquoted into fresh Eppendorf tubes and stored at −20° C. prior to glucose and insulin determinations. Normal control mice from the same genetic background were used for comparative purposes. […] Body weights were recorded daily and blood for determination of glycated hemoglobin was collected at end of study period.
(§3) Plasma glucose was assayed by an automated glucose oxidase procedure (Stevens, J. F., 1971, Clin. Chem. Acta 32:199-201) using a Beckman Glucose Analyzer II (Beckman Instruments, Galway, Ireland). Plasma and pancreatic insulin were assayed by a modified dextran-coated charcoal radioimmunoassay (Flatt, P. R., Bailey, C. J., 1981, Diabetologia 20:573-577). Plasma triglyceride and cholesterol levels were measured using a Hitachi Automatic Analyser 912 (Boehringer Mannheim, Germany). Glycated hemoglobin was determined using a commercially available kit purchased from Chirus Ltd. (Watford, UK).
Results are expressed as mean±SEM. Data were compared using ANOVA, followed by a Student-Newman-Keuls post hoc test. Area under the curve (AUC) analyzes were calculated using the trapezoidal rule with baseline subtraction. P<0.05 was considered to be statistically significant.

normal mice = settings: once daily 11 days (Irwin 2004); cited from earlier work
DPP-IV = DPP-IV (Homo sapiens, UniProt P27487); assay: Degradation of GIP and Glu3-substituted GIP analogs by DPP-IV (HPLC); assay type: in vitro ADME
Swiss TO mice [1] = assay: Daily (Pro3)GIP for 90 days in normal (TO) mice fed high fat, cafeteria, high carbohydrate or normal diets; assay type: in vivo, mouse; settings: for Glycated Hemoglobin (%): 25 nmol/kg bw/day
Description: as §1, §2, §3
Normal mice were fed the different diets indicated above ad libitum from 4-5 weeks of age. Treated groups of mice received intraperitoneal injection of ProGIP (25 nmoles/kg body weight) each day.

Swiss TO mice [2] = assay: Daily (Pro3)GIP for 60 days in Swiss TO mice previously fed high fat diet for 160 days; assay type: in vivo, mouse; settings: high fat diet 160 days before, 25 nmoles/kg/day i.p. 60 days
Description: Parameters were measured at 3-4 daily intervals during a 60 day treatment period, which was preceded by a 160 days of feeding high fat diet. Mice were initially recruited into the study at 6-8 weeks of age. Control animals received standard rodent maintenance diet, 12.99 kj/g, (Harlan, UK) ad libitum. The animals were maintained on the respective diet for the duration of the study. High fat diet comprised 45% fat, 20% protein and 35% carbohydrate (26.15 kj/g) and was available ad libitum. (Special Diet Services, Essex, UK).
The results are shown in FIGS. 15A-B, which are a set of line graphs. Normal mice were fed the high fat diet indicated above ad libitum from 6-8 weeks of age. Treated groups of mice received intraperitoneal injection of ProGIP (25 nmoles/kg body weight) each day for a further 60 days while receiving the same high fat diet.

[3] = normal mice fed high fat or cafeteria diets, 90 days

Chain of DPP-IV (P27487 whole entry, species assumed): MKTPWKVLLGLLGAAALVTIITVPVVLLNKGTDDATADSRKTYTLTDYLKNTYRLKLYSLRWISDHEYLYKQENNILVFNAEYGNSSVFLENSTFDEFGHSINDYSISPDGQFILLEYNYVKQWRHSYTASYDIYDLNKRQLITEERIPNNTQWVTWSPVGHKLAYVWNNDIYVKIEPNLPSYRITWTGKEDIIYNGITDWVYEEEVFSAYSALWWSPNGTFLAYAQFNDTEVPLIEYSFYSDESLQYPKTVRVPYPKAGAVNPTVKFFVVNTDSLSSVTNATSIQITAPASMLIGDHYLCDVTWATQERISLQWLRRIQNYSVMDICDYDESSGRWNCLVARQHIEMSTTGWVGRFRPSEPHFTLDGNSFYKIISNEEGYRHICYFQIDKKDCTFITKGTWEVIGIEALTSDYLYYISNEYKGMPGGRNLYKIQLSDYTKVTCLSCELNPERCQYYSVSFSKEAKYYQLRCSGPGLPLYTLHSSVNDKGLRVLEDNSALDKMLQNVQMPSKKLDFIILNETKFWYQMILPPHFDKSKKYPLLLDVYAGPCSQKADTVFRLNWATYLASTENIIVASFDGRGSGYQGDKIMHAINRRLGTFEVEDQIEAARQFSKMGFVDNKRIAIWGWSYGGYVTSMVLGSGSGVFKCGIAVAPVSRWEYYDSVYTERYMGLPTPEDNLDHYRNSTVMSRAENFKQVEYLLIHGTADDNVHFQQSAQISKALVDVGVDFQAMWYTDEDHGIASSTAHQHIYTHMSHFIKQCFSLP

With “YAPGTFISDYSIAMDKIHQQDFVNWLLAQKGKKNDWKHNITQ [(Pro^3)GIP]” the body weight gain (ob/ob mice; 5-7 weeks old ob/ob mice, standard diet, 60 days) was “progressive decrease in body weight gain”, the “plasma insulin levels after 15 minute feeding” value (ob/ob mice; 18 h fasted ob/ob mice, 60 days, vs saline) was “not significantly different” and the “plasma glucose responses to 15 minute feeding” value (ob/ob mice; 18 h fasted ob/ob mice, 60 days, 15, 30, 60 and 105 min) was “significantly lowered”. For the same sequence, the “decrease in body weight” value (ob/ob mice; ob/ob mice, 25 nmol/kg/day i.p., 60 days, vs saline, did not reach significance) was about 17%, the “effect on food intake” value (ob/ob mice; ob/ob mice, 25 nmol/kg/day, 60 days, vs saline) was “no effect; also recorded: without changing food intake” and the cholesterol levels (ob/ob mice; ob/ob mice, 60 days, vs saline) was “unaltered”. The circulating triglyceride concentrations (ob/ob mice; ob/ob mice, 60 days, vs saline) was “significantly (P<0.05) reduced”, the enhanced insulin sensitivity (ob/ob mice; ob/ob mice, 60 days, vs saline) was 1.5 fold and the “lowering of overall plasma glucose response to feeding” value (ob/ob mice; ob/ob mice, 60 days, vs saline) was 1.7 fold. The “lowering of overall plasma glucose response to intraperitoneal glucose load” value (ob/ob mice; ob/ob mice, 60 days, vs saline) was 1.9 fold, the pancreatic insulin content (ob/ob mice; ob/ob mice, 60 days, vs saline) was “significantly (P<0.01) decreased” and the pancreatic weight (ob/ob mice; ob/ob mice, 60 days, vs saline) was “no effect”. For the same sequence, the “reduced pancreatic insulin content” value (ob/ob mice; ob/ob mice, 60 days, vs saline) was 1.5 fold, the “levels of LDL-C” value (ob/ob mice; ob/ob mice, 60 days, vs saline, LDL-C calculated by Friedewald equation) was “significantly reduced” and the “plasma glucose concentrations following intraperitoneal glucose” value (ob/ob mice; ob/ob mice, 60 days, 0, 15, 30 and 60 min after glucose 18 mmol/kg) was “significantly reduced”. The “plasma insulin concentrations following intraperitoneal glucose” value (ob/ob mice; ob/ob mice, 60 days, 15 min after glucose 18 mmol/kg) was “significantly (P<0.05) reduced”, the “hypoglycemic action of insulin (insulin sensitivity)” value (ob/ob mice; ob/ob mice, 60 days, insulin 50 U/kg i.p.) was “significantly (P<0.05) augmented” and the “overall glycaemic excursion and insulinotropic response to glucose together with native GIP” value (ob/ob mice; ob/ob mice, 60 days, native GIP 25 nmoles/kg) was “significant decrease”. For the same sequence, the glycated hemoglobin (ob/ob mice; ob/ob mice, after 60 days treatment) was 4.1±0.1%, the non-fasting plasma glucose (ob/ob mice; ob/ob mice, day 14 to day 60, vs saline) was “significantly reduced” and the non-fasting plasma insulin (ob/ob mice; ob/ob mice, day 44, vs saline) was “significantly lowered”. For the same sequence, the “glucose tolerance and insulin sensitivity” value (normal mice) was “reversible impairment of glucose tolerance associated with decreased insulin sensitivity”, the half-life at 2 μm (DPP-IV; DPP-IV enzyme (5 mU) in buffer, pH 7.8, incubation with DPP-IV, unit not given (time points in hrs), read-out: Estimated Half-Life (converted)) was over 8 h and the “Intact Peptide Remaining (%) 0 hrs.” value (DPP-IV; incubation with DPP-IV (5 mU), 37°C, pH 7.8, 0 hrs) was 100%. It also gave a remaining at 2 h, 2 μm (DPP-IV; isolated DPP-IV enzyme (5 mU), incubation with DPP-IV (5 mU), 37°C, pH 7.8, 2 hrs, read-out: Intact Peptide Remaining (%) 2 hrs.) of 100%, a remaining at 4 h, 2 μm (DPP-IV; isolated DPP-IV enzyme (5 mU), incubation with DPP-IV (5 mU), 37°C, pH 7.8, 4 hrs, read-out: Intact Peptide Remaining (%) 4 hrs.) of 100% and a remaining at 8 h, 2 μm (DPP-IV; isolated DPP-IV enzyme (5 mU), incubation with DPP-IV (5 mU), 37°C, pH 7.8, 8 hrs, read-out: Intact Peptide Remaining (%) 8 hrs.) of 100%. The “resistance to DPP-IV degradation” value (DPP-IV; words, up to 8 hours incubation) was “completely resistant”, the “Glycated Hemoglobin (%)” value (Swiss TO mice [1]; Cafeteria diet, 90 days) was 4.0 ± 0.32 % and the “Glycated Hemoglobin (%)” value (Swiss TO mice [1]; High Carbohydrate diet, 90 days) was 4.3 ± 0.12%. For the same sequence, the “Glycated Hemoglobin (%)” value (Swiss TO mice [1]; High Fat diet, 90 days) was 4.0 ± 0.21 %, the “Glycated Hemoglobin (%)” value (Swiss TO mice [1]; Normal diet, 90 days) was 3.9 ± 0.14% and the “body weight and glycated hemoglobin (parameters measured)” value (Swiss TO mice [1]; high carbohydrate or normal diets) was “did not affect”. The “body weight gain induced by excessive energy intake” value (Swiss TO mice [1]; high fat diet, lesser extent cafeteria diet) was “counters body weight gain”, the “decrease in body weight” value (Swiss TO mice [1]; [3]) was “up to 20%” and the “decrease in glycated hemoglobin” value (Swiss TO mice [1]; [3]) was “greater than 1%”. The body weight (Swiss TO mice [2]) was “promotes body weight loss” and the energy intake (Swiss TO mice [2]) was “not associated with significant decrease in energy intake”.
